Source: patent US8283373B2, “Inhibitors of cytosolic phospholipase A2” (Pfizer Inc., priority 2005, dated 2012)

Legend:
TXB2 = test: Rat Whole Blood Assay (A23187-stimulated TXB2); format: cell-based; conditions: A23187 5 μM
Description: Fresh blood was collected in heparinized tubes by cardiac puncture of male Sprague-Dawley rats. Aliquots of blood (0.6 mL) were incubated with either 6 μL solvent (DMSO), or 6 μL of test compounds at various concentrations for 15 minutes at 37° C. This was followed by incubation of the blood with 6 μL of calcium ionophore, A23187 (Sigma C-7522) diluted in DMSO for 10 min at 37° C. The final concentration of A23187 was 5 μM. DMSO (6 μL) was added in the unstimulated controls. The reactions were stopped by mixing 60 μL cold EDTA to give a final concentration of 20 mM. The blood was centrifuged at 6,500 rpm for 10 min on a microcentrifuge to obtain plasma. A 70 μL aliquot of plasma was mixed with 400 μL cold methanol for protein precipitation. After incubation at −80° C. for 30 min, the supernatant was obtained by centrifuging at 6,500 rpm for 10 min, and was assayed for TXB2 according to the manufacturer's procedure (Assay Designs, Inc.'s ELISA kit #900-002).

cPLA2α = target: T1, cPLA2α (Homo sapiens, UniProt P47712); test: GLU Micelle Assay; format: biochemical
T1 sequence (P47712 1-749): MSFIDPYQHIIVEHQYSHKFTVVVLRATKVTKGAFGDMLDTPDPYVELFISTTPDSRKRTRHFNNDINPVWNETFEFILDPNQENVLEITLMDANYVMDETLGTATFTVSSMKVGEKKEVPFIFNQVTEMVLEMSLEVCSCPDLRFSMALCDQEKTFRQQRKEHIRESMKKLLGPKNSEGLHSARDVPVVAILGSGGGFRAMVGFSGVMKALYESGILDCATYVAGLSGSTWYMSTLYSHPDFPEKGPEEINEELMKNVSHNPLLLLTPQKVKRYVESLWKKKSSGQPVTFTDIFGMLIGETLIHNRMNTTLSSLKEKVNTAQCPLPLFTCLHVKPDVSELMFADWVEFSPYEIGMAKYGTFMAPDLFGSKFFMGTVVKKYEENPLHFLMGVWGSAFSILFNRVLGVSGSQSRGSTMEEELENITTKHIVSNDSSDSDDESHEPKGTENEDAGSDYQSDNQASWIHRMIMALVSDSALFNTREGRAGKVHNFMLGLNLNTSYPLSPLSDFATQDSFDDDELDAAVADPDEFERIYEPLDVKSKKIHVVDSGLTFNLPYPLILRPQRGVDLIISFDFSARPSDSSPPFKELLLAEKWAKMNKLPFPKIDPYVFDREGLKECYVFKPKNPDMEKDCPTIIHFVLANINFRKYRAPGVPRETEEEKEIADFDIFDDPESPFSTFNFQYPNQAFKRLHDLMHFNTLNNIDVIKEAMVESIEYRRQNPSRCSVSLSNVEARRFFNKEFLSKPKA
Description: The assay was carried in a 96-well format using a fluorescent plate reader with a 355 nm excitation filter and a 460 nm emission filter (Lab Systems Fluoroscan II, Helsinki, Finland). The assay buffer contained 940 μM Triton X-100, 50 mM Hepes pH 7.4, 0.3 mM EDTA, 1 mM CaCl2 and 300 mM KCl. DTPC (1,2-O-tetradecyl-sn-glycero-3-phosphocholine, Avanti) at a final concentration of 120 μM was added the day of the experiment and GLU (7-Hydroxycoumarinyl-γ-linolenate, Biomol Research Lab, Inc.) at a final concentration of 90 μM was added immediately prior to each assay.
Compounds (10 μL) dissolved in DMSO were placed in duplicate wells of a black 96-well plate. Wells corresponding to the positive and negative controls contained DMSO without inhibitors. Just prior to the experiment, 200 μL assay buffer containing 90 μM GLU and 120 μM DTPC was added to all wells in the assay plate. Assay buffer (50 μL) was added to the negative, and 50 μL cPLA2α solution ([…] in assay buffer) was added to all other wells to initiate the reaction. The final concentration of enzyme was 1 μg/ml. The content of each well was mixed gently during the addition of the enzyme, and the plate was rapidly transferred to the fluorescent plate reader. The increase in fluorescence was read every 4 min for 84 min. The slope of the resulting line was determined and the inhibition was calculated using the equation below: Percent Inhibition=[1−(slope with inhibitor−slope negative control)/(slope positive control−slope negative control)]×100 Rat Whole Blood Assay

IC50 (TXB2; Rattus norvegicus) [nM]	IC50 (cPLA2α) [nM]	Compound	IC50 (TXB2) [nM]
60	21	O=C(O)c1ccc(CCCc2c(CCNS(=O)(=O)Cc3ccccc3-c3ccncc3)n(C(c3ccccc3)c3ccccc3)c3ccc(Cl)cc23)cc1 [Example 30, 4-{3-[5-chloro-1-(diphenylmethyl)-2-(2-{[(2-pyridin-4-ylbenzyl)sulfonyl]amino}ethyl)-1H-indol-3-yl]propyl}benzoic acid]	
20	68	CC(c1ccccc1C(F)(F)F)S(=O)(=O)NCCc1c(CCS(=O)(=O)c2ccc(CCC(=O)O)cc2)c2cc(Cl)ccc2n1C(c1ccccc1)c1ccccc1 (stereo not shown) [Example 39, 3-(4-{[2-(5-chloro-1-(diphenylmethyl)-2-{2-[({1-[2-(trifluoromethyl)phenyl]ethyl}sulfonyl)amino]ethyl}-1H-indol-3-yl)ethyl]sulfonyl}phenyl)propanoic acid]	
40	105	CC(c1ccccc1C(F)(F)F)S(=O)(=O)NCCc1c(CCCc2ccc(C(=O)O)cc2)c2cc(Cl)ccc2n1C(c1ccccc1)c1ccccc1 (stereo not shown) [Example 23, 4-[3-(5-chloro-1-(diphenylmethyl)-2-{2-[({1-[2-(trifluoromethyl)phenyl]ethyl}sulfonyl)amino]ethyl}-1H-indol-3-yl)propyl]benzoic acid]	
20	10	O=C(O)c1ccc(CCCc2c(CCNS(=O)(=O)Cc3ccccc3CN3CCOCC3)n(C(c3ccccc3)c3ccccc3)c3ccc(Cl)cc23)cc1 [Example 17, 4-(3-{5-chloro-1-(diphenylmethyl)-2-[2-({[2-(morpholin-4-ylmethyl)benzyl]sulfonyl}amino)ethyl]-1H-indol-3-yl}propyl)benzoic acid]	
20	24	O=C(O)c1ccc(CCCc2c(CCNS(=O)(=O)Cc3c(Cl)cccc3Cl)n(C(c3ccccc3)c3ccccc3)c3ccc(Cl)cc23)cc1 [Example 8, 4-{3-[5-chloro-2-(2-{[(2,6-dichlorobenzyl)sulfonyl]amino}ethyl)-1-(diphenylmethyl)-1H-indol-3-yl]propyl}benzoic acid]	
40	16	O=C(O)c1ccc(CCCc2c(CCNS(=O)(=O)Cc3ccccc3-c3cccnc3)n(C(c3ccccc3)c3ccccc3)c3ccc(Cl)cc23)cc1 [Example 31, 4-{3-[5-chloro-1-(diphenylmethyl)-2-(2-{[(2-pyridin-3-ylbenzyl)sulfonyl]amino}ethyl)-1H-indol-3-yl]propyl}benzoic acid]	
30	22	O=C(O)c1ccc(CCCc2c(CCNS(=O)(=O)Cc3ccccc3CO)n(C(c3ccccc3)c3ccccc3)c3ccc(Cl)cc23)cc1 [Example 19, 4-(3-{5-chloro-1-(diphenylmethyl)-2-[2-({[2-(hydroxymethyl)benzyl]sulfonyl}amino)ethyl]-1H-indol-3-yl}propyl)benzoic acid]	
70	31	O=C(O)c1ccc(CCCc2c(CCNS(=O)(=O)Cc3ccccc3-c3ccccc3OC(F)(F)F)n(C(c3ccccc3)c3ccccc3)c3ccc(Cl)cc23)cc1 [Example 36, 4-[3-(5-chloro-1-(diphenylmethyl)-2-{2-[({[2′-(trifluoromethoxy)biphenyl-2-yl]methyl}sulfonyl)amino]ethyl}-1H-indol-3-yl)propyl]benzoic acid]	
20	26	O=C(O)c1ccc(OCCc2c(CCNS(=O)(=O)Cc3ccccc3C(F)(F)F)n(C(c3ccccc3)c3ccccc3)c3ccc(Cl)cc23)cc1 [Example 5, 4-(2-{5-chloro-1-(diphenylmethyl)-2-[2-({[2-(trifluoromethyl)benzyl]sulfonyl}amino)ethyl]-1H-indol-3-yl}ethoxy)benzoic acid]	
80	21	CN1CCN(Cc2ccccc2CS(=O)(=O)NCCc2c(CCCc3ccc(C(=O)O)cc3)c3cc(Cl)ccc3n2C(c2ccccc2)c2ccccc2)CC1 [Example 22, 4-[3-(5-chloro-1-(diphenylmethyl)-2-{2-[({2-[(4-methylpiperazin-1-yl)methyl]benzyl}sulfonyl)amino]ethyl}-1H-indol-3-yl)propyl]benzoic acid]	
30	26	COC(=O)c1ccccc1CS(=O)(=O)NCCc1c(CCCc2ccc(C(=O)O)cc2)c2cc(Cl)ccc2n1C(c1ccccc1)c1ccccc1 [Example 13, 4-(3-{5-chloro-1-(diphenylmethyl)-2-[2-({[2-(methoxycarbonyl)benzyl]sulfonyl}amino)ethyl]-1H-indol-3-yl}propyl)benzoic acid]	
10	7	O=C(O)CCc1ccc(S(=O)(=O)CCc2c(CCNS(=O)(=O)Cc3ccccc3C(F)(F)F)n(C(c3ccccc3)c3ccccc3)c3ccc(Cl)cc23)cc1 [Example 38, 3-{4-[(2-{5-chloro-1-(diphenylmethyl)-2-[2-({[2-(trifluoromethyl)benzyl]sulfonyl}amino)ethyl]-1H-indol-3-yl}ethyl)sulfonyl]phenyl}propanoic acid]	
120	190	O=C(O)c1ccc(OCCc2c(CCNS(=O)(=O)Cc3ccccc3O)n(C(c3ccccc3)c3ccccc3)c3ccc(Cl)cc23)cc1 [Example 2, 4-{2-[5-chloro-1-(diphenylmethyl)-2-(2-{[(2-hydroxybenzyl)sulfonyl]amino}ethyl)-1H-indol-3-yl]ethoxy}benzoic acid]	

Compound	IC50 (TXB2; Rattus norvegicus) [nM]	IC50 (cPLA2α) [nM]	IC50 (TXB2) [nM]
Cc1cccc([N+](=O)[O-])c1CS(=O)(=O)NCCc1c(CCOc2ccc(C(=O)O)cc2)c2cc(Cl)ccc2n1C(c1ccccc1)c1ccccc1 [Example 4, 4-(2-{1-benzhydryl-5-chloro-2-[2-methyl-6-nitro-phenylmethanesulfonylamino)-ethyl-1-H-indol-3-yl}ethoxy)-benzoic acid]		54	20
